These are literature values, as cited in US7799756B2, “Processes for stereoselective synthesis of trans ISATX247” (Albany Molecular Research, Inc., priority 2004, dated 2010).

The conditions of data set [1]: phase IIa, kidney transplantation, mixture of cis and trans isomers.
The conditions of data set [2]: over natural cyclosporins and presently known cyclosporin derivatives.
For data set [3] the following is noted: compared to the corresponding cis-isomer.
The conditions of data set [4]: compared to the corresponding cis-isomer. This is another data set of the same source.

As for `C=CC=CC[C@@H](C)[C@@H](O)C1C(=O)N[C@H](CC)C(=O)N(C)CC(=O)N(C)[C@@H](CC(C)C)C(=O)N[C@H](C(C)C)C(=O)N(C)[C@H](CC(C)C)C(=O)N[C@H](C)C(=O)N[C@@H](C)C(=O)N(C)[C@H](CC(C)C)C(=O)N(C)[C@H](CC(C)C)C(=O)N(C)[C@H](C(C)C)C(=O)N1C` (stereo partly drawn) [ISATX247, cyclo {(E,Z)-(2S,3R,4R)-3-hydoxy-4-methyl-2-(methylamino)-6,8-nonadienoyl-L-2-aminobutyryl-N-methyl-glycyl-N -methyl-L-leucyl-L-valyl-N-methyl-L-leucyl-L-alanyl-D-alanyl-N-methyl-L-leucyl-N-methyl-L-leucyl-N-methyl-L-valyl}], in data set [1], the clinical trial outcome was “positive results”. Further, in data set [2], the potency entry is recorded as “enhanced potency”.

In the case of trans ISATX247, the therapeutic index entry in data set [3] is recorded as “improved therapeutic index”. The activity on immunosuppression entry in data set [4] is “better activity on immunosuppression”.
